Assay results published in PubChem BioAssay AID330 (DTP/NCI, 2004).
Where “and” joins values, the source holds several entries; their conditions need not be identical. Identical values can stand only once. Toxic doses and inconclusive results are not listed. The calls were made as follows: active = survival T/C of 150% or more; inactive = T/C below 125% in these data.

Tested on: P388 leukemia ip, CD2F1 mice, survival T/C
Test: NCI In Vivo Anticancer Drug Screen. Data for tumor model P388 Leukemia (intraperitoneal) in CD2F1 (CDF1) mice
Conditions: endpoint: median survival time, higher = longer survival
In short: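 Mice carrying the transplanted tumor received test compound or vehicle. Survival was recorded in each group, and the value is the treated-group measurement divided by that of the vehicle-treated control group.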

[1] = dose: 50.0 mg/kg/injection, schedule: Q01DX009 (ip), vehicle: saline
[2] = dose: 50.0 mg/kg/injection, schedule: Q01DX009 (ip), vehicle: saline with Tween-80
[3] = dose: 100.0 mg/kg/injection, schedule: Q01DX009 (ip), vehicle: saline with Tween-80
[4] = dose: 60.0 mg/kg/injection, schedule: Q01DX005 (ip), vehicle: saline with Tween-80
[5] = dose: 120.0 mg/kg/injection, schedule: Q01DX005 (ip), vehicle: saline with Tween-80
[6] = dose: 240.0 mg/kg/injection, schedule: Q01DX005 (ip), vehicle: saline with Tween-80
[7] = dose: 60.0 mg/kg/injection, schedule: Q01DX005 (ip), vehicle: Klucel (hydroxypropylcellulose) (HPC)
[8] = dose: 120.0 mg/kg/injection, schedule: Q01DX005 (ip), vehicle: Klucel (hydroxypropylcellulose) (HPC)
[9] = dose: 240.0 mg/kg/injection, schedule: Q01DX005 (ip), vehicle: Klucel (hydroxypropylcellulose) (HPC)
[10] = dose: 50.0 mg/kg/injection, schedule: Q01DX005 (ip), vehicle: saline with Tween-80
[11] = dose: 100.0 mg/kg/injection, schedule: Q01DX005 (ip), vehicle: saline with Tween-80
[12] = dose: 200.0 mg/kg/injection, schedule: Q01DX005 (ip), vehicle: saline with Tween-80
[13] = dose: 12.5 mg/kg/injection, schedule: Q01DX005 (ip), vehicle: saline
[14] = dose: 25.0 mg/kg/injection, schedule: Q01DX005 (ip), vehicle: saline
[15] = dose: 50.0 mg/kg/injection, schedule: Q01DX005 (ip), vehicle: saline
[16] = dose: 25.0 mg/kg/injection, schedule: Q01DX009 (ip), vehicle: other
[17] = dose: 50.0 mg/kg/injection, schedule: Q01DX009 (ip), vehicle: other

Measured: T/C

C[n+]1ccccc1C#N
inactive: dose: 12.5 mg/kg/injection, schedule: Q01DX009 (ip), vehicle: saline 109 % of control | dose: 25.0 mg/kg/injection, schedule: Q01DX009 (ip), vehicle: saline 104 % of control | [1] 104 % of control

N#CN=CN1CCC(Cc2ccccc2)CC1
inactive: [2] 101 % of control | [3] 101 % of control

Cc1cc2nnn(-c3ncccc3[N+](=O)[O-])c2cc1C
inactive: [4] 104 % of control | [5] 101 % of control | [6] 101 % of control

Nc1ncnc2c1c(C(=O)O)cn2C1OC(CO)C(O)C1O (stereo not drawn)
inactive: dose: 25.0 mg/kg/injection, schedule: Q04DX003 (ip), vehicle: saline with Tween-80 120 % of control | [2] 118 % of control | [3] 86 % of control

CCN(CC)c1ccc2nc3ccc(N=Nc4c(O)ccc5ccccc45)cc3[n+](-c3ccccc3)c2c1
inactive: dose: 0.75 mg/kg/injection, schedule: Q01DX005 (ip), vehicle: saline with Tween-80 115 % of control | dose: 1.5 mg/kg/injection, schedule: Q01DX005 (ip), vehicle: saline with Tween-80 120 % of control | dose: 3.0 mg/kg/injection, schedule: Q01DX005 (ip), vehicle: saline with Tween-80 120 % of control | dose: 6.0 mg/kg/injection, schedule: Q01DX005 (ip), vehicle: saline with Tween-80 90 % of control

O=C1NC(c2ccccc2)(c2ccccc2)C(=O)N1CN1CCc2ccccc2C1
inactive: [7] 90 % of control | [8] 91 % of control | [9] 90 % of control

O=c1[nH][nH]c(=O)n1/N=C\c1ccccc1O
inactive: dose: 50.0 mg/kg/injection, schedule: Q01DX001 (ip), vehicle: Klucel (hydroxypropylcellulose) (HPC) 100 % of control | dose: 100.0 mg/kg/injection, schedule: Q01DX001 (ip), vehicle: Klucel (hydroxypropylcellulose) (HPC) 104 % of control | dose: 200.0 mg/kg/injection, schedule: Q01DX001 (ip), vehicle: Klucel (hydroxypropylcellulose) (HPC) 98 % of control

COC(=O)C1C(=O)C(NC(=O)CCCCl)C(c2ccccc2)C(C(=O)OC)C1=O (stereo not drawn)
inactive: dose: 12.5 mg/kg/injection, schedule: Q01DX005 (ip), vehicle: saline with Tween-80 103 % of control | dose: 25.0 mg/kg/injection, schedule: Q01DX005 (ip), vehicle: saline with Tween-80 106 % of control | [10] 99 % of control | [4] 101 % of control | [11] 102 % of control | [5] 94 % of control | [12] 103 % of control | [6] 97 % of control

CCOC(=O)C(C(C)O)C1CC=CC1 (stereo not drawn)
inactive: [10] 108 % of control | [11] 100 % of control | [12] 104 % of control

S=c1nc(-c2nc(=S)[nH]c3c2CCCCC3)c2c([nH]1)CCCCC2
inactive: [7] 97 % of control | [8] 96 % of control | [9] 92 % of control

C/C(=N\NC(=S)N1CCCCCC1)c1nccnc1C
inactive: dose: 25.0 mg/kg/injection, schedule: Q01DX005 (ip), vehicle: Klucel (hydroxypropylcellulose) (HPC) 112 % of control | dose: 50.0 mg/kg/injection, schedule: Q01DX005 (ip), vehicle: Klucel (hydroxypropylcellulose) (HPC) 122 % of control

CCOC(=O)C1=C(c2ccccc2)N(C)c2ccccc2S1
inactive: dose: 60.0 mg/kg/injection, schedule: Q01DX005 (ip), vehicle: saline + Tween-80 + alcohol 100 % of control | dose: 120.0 mg/kg/injection, schedule: Q01DX005 (ip), vehicle: saline + Tween-80 + alcohol 103 % of control | dose: 240.0 mg/kg/injection, schedule: Q01DX005 (ip), vehicle: saline + Tween-80 + alcohol 100 % of control

CCCCCCCN(CCCCCCC)CC(O)c1c(OC)c2ccccc2c2ccccc12 (stereo not drawn)
inactive: dose: 25.0 mg/kg/injection, schedule: Q01DX009 (ip), vehicle: saline with Tween-80 89 % of control | [2] 88 % of control

CCCN(C)CC(C)(O)CNc1cc(OC)cc2cccnc12 (stereo not drawn)
inactive: [13] 100 % of control | [14] 95 % of control | [10] 106 % of control | [15] 99 % of control

CCCCCCCCCCCCCCCC(=O)N(CCCCN(C(=O)CCCCCCCCCCCCCCC)C(C)CCCN(CC)CC)C(C)CCCN(CC)CC (stereo not drawn)
inactive: [16] 93 % of control | [17] 93 % of control

COc1cc(NCCCCCNC(C)C)c2ncc(C)c(C)c2c1
inactive: [13] 102 % of control | [14] 100 % of control | [15] 100 % of control

COC(=O)Cn1/c(=N\N=C\c2ccc(C)cc2)sc2ccccc21
inactive: dose: 100.0 mg/kg/injection, schedule: Q01DX001 (ip), vehicle: saline with Tween-80 91 % of control | dose: 200.0 mg/kg/injection, schedule: Q01DX001 (ip), vehicle: saline with Tween-80 91 % of control | dose: 400.0 mg/kg/injection, schedule: Q01DX001 (ip), vehicle: saline with Tween-80 89 % of control

N#CNc1c2ccccc2nc2ccccc12
inactive: dose: 15.0 mg/kg/injection, schedule: Q01DX005 (ip), vehicle: saline with Tween-80 101 % of control | dose: 30.0 mg/kg/injection, schedule: Q01DX005 (ip), vehicle: saline with Tween-80 97 % of control | [4] 99 % of control and 100 % of control

NN1CCCC1
inactive: dose: 100.0 mg/kg/injection, schedule: Q04DX003 (ip), vehicle: saline 90 % of control | dose: 200.0 mg/kg/injection, schedule: Q04DX003 (ip), vehicle: saline 95 % of control

CC1=Nc2nnnn2N=C(C)C1
inactive: [14] 104 % of control | [15] 92 % of control | dose: 100.0 mg/kg/injection, schedule: Q01DX005 (ip), vehicle: saline 95 % of control

COC(=O)C(NC(=O)C(Cc1c[nH]c2ccccc12)NC(=O)OC(C)(C)C)C(C)C (stereo not drawn)
inactive: dose: 12.5 mg/kg/injection, schedule: Q01DX009 (ip), vehicle: other 96 % of control | [16] 90 % of control | [17] 91 % of control | dose: 100.0 mg/kg/injection, schedule: Q01DX009 (ip), vehicle: other 109 % of control | dose: 200.0 mg/kg/injection, schedule: Q01DX009 (ip), vehicle: other 114 % of control

COc1ccnc(-c2cc(OC)cc(/C(N)=N/O)n2)c1
inactive: [4] 100 % of control | [5] 105 % of control | [6] 100 % of control

CCO/C(C)=N\O
inactive: dose: 25.0 mg/kg/injection, schedule: Q04DX003 (ip), vehicle: Klucel (hydroxypropylcellulose) (HPC) 98 % of control | [1] 103 % of control | dose: 50.0 mg/kg/injection, schedule: Q04DX003 (ip), vehicle: Klucel (hydroxypropylcellulose) (HPC) 98 % of control | dose: 100.0 mg/kg/injection, schedule: Q01DX009 (ip), vehicle: saline 97 % of control | dose: 100.0 mg/kg/injection, schedule: Q04DX003 (ip), vehicle: Klucel (hydroxypropylcellulose) (HPC) 99 % of control | dose: 200.0 mg/kg/injection, schedule: Q01DX009 (ip), vehicle: saline 101 % of control | dose: 200.0 mg/kg/injection, schedule: Q04DX003 (ip), vehicle: Klucel (hydroxypropylcellulose) (HPC) 99 % of control

CCCCCCCCCCCCCCCCS(=O)(=O)CCO
inactive: [2] 95 % of control | [3] 90 % of control | dose: 200.0 mg/kg/injection, schedule: Q01DX009 (ip), vehicle: saline with Tween-80 86 % of control

CC(C)(S)CN
inactive: dose: 100.0 mg/kg/injection, schedule: Q01DX001 (ip), vehicle: saline 104 % of control | dose: 200.0 mg/kg/injection, schedule: Q01DX001 (ip), vehicle: saline 108 % of control | dose: 400.0 mg/kg/injection, schedule: Q01DX001 (ip), vehicle: saline 103 % of control
